Literature values as cited in patent publication US10995060B2, “Amorphous Trisodium Sacubitril Valsartan and process for its preparation” (priority 2016, dated 2021).
Where a name gives a salt, the structure may show the parent alone. Read-outs that look alike come from different tables or passages of the source.

Key:
[1] = for Crystalline state / polymorph stability after exposure: 80° C at 0% RH and 75% RH for 3 days; for Result after loading of the sample at 80° C./0% RH / Result after loading of the sample at 80° C./75% RH: solid form by X-ray powder analysis, 3 days
[2] = crystal powder of Example 11 of WO 200206253

Hygroscopicity [2]	Molecule	Crystalline state / polymorph stability after exposure [1]	Result after loading of the sample at 80° C./0% RH [1]	Result after loading of the sample at 80° C./75% RH [1]	Result after loading of the sample at 80° C./75% RH ([1]; listed as sodium salt of Sacubitril)
–	CCOC(=O)[C@H](C)C[C@@H](Cc1ccc(-c2ccccc2)cc1)NC(=O)CCC(=O)[O-].[Na+] [sodium salt of sacubitril]	high rate of polymorph instability	Semicrystalline phase	Amorphous sample	completely amorphous
–	CCOC(=O)[C@H](C)C[C@@H](Cc1ccc(-c2ccccc2)cc1)NC(=O)CCC(=O)O [calcium salt of sacubitril]	did not change	Crystalline sample(form I)I	Crystalline sample(form I)I	–
slightly hygroscopic	Hydrate of valsartan disodium salt (2.4 ě 1.0 mole H2O)	–	–	–	–
